Where two headings read alike, the source gives them in different places.
Assays:
Type in all cases: cell-based
[1] = tested on: K. pneumo JMI 4088; assay: MIC, antibacterial and synergistic activity; conditions: K. pneumo JMI 4088 (KPC-3 (Cpase)); substance alone
[2] = tested on: E. coli ATCC 25922; assay: MIC, antibacterial and synergistic activity; conditions: Escherichia coli, ATCC25922; E. coli ATCC 25922 (Wt); substance alone
[3] = tested on: E. coli JMI 10770; assay: MIC, antibacterial and synergistic activity; conditions: Escherichia coli, JMI10770; E. coli JMI 10770 (CTX-M15 (Hyper ESBL)); substance alone
[4] = tested on: E. coli JMI 10767; assay: MIC, antibacterial and synergistic activity; conditions: Escherichia coli, JMI10767; E. coli JMI 10767 (Wt); substance alone
[5] = tested on: metallo β-lactamase producing bacteria; assay: MIC in combination with various antibiotics against metallo β-lactamase producing bacteria (Tables 10-12); conditions: agent alone
Method: (§1) In the Tables 10 - 12, compounds herein disclosed were tested in combination with various antibiotics against metallo β-lactamase producing bacteria.

[6] = tested on: K. pneumo JMI 4106; assay: MIC, antibacterial and synergistic activity; conditions: K. pneumo JMI 4106 (KPC-3, TEM-1, SHV-12, SHV-141), substance alone
[7] = tested on: E.coli JMI 4103; assay: MIC, antibacterial and synergistic activity; conditions: Escherichia coli, JMI4103; E.coli JMI 4103 (KPC-2, Tem-1, CMY-Type); substance alone
[8] = tested on: P. aerug JMI 2686; assay: MIC, antibacterial and synergistic activity; conditions: P. aerug JMI 2686 (KPC-2 (Cpase)); substance alone
[9] = tested on: E. coli JMI 4080; assay: MIC, antibacterial and synergistic activity; conditions: Escherichia coli, JMI4080, E. coli JMI 4080 (Tem-10); substance alone
[10] = tested on: K. pneumo JMI 2699; assay: MIC, antibacterial and synergistic activity; conditions: K. pneumo JMI 2699 (VIM-1, CTX-M3), substance alone
Method: (§2) In the Tables 10 - 12, compounds herein disclosed were tested in combination with various antibiotics against metallo β-lactamase producing bacteria. Table 3: Synergy of the inhibitor Ex. 1 (4 µg/mL) in combination with antibiotics

[11] = tested on: K. pneumo JMI 2674; assay: MIC, antibacterial and synergistic activity; conditions: K. pneumo JMI 2674 (CTX-M15 (ESBL)); substance alone
Method: as §2

[12] = tested on: E. coli JMI 10768; assay: MIC, antibacterial and synergistic activity; conditions: Escherichia coli, JMI10768; E. coli JMI 10768 (CTX-M15 (Weak ESBL)); substance alone
Method: as §2

[13] = tested on: K. pneumo JMI 4088; assay: MIC, antibacterial and synergistic activity; conditions: K. pneumo JMI 4088 (KPC-3 (Cpase)); substance alone; remark: listed apart in the source
Method: as §2

[14] = tested on: K. pneumo JMI 2697; assay: MIC, antibacterial and synergistic activity; conditions: K. pneumo JMI 2697 (IMP-4 (Cpase)); substance alone
Method: as §1

[15] = tested on: K. pneumo JMI 2693; assay: MIC, antibacterial and synergistic activity; conditions: K. pneumo JMI 2693 (NDM-1 (Cpase)); substance alone
Method: as §1

[16] = tested on: E. coli JMI 2692; assay: MIC, antibacterial and synergistic activity; conditions: Escherichia coli, JMI2692
Method: as §1

[17] = tested on: E. coli JMI 11103; assay: MIC, antibacterial and synergistic activity; conditions: Escherichia coli, JMI11103, E. coli JMI 11103 (CTX-M15 (Intermediate ESBL)); substance alone
[18] = tested on: K. pneumo JMI 2674; assay: MIC, antibacterial and synergistic activity; conditions: K. pneumo JMI 2674 (CTX-M15 (ESBL)); substance alone; remark: listed apart in the source
[19] = tested on: K. pneumo JMI 2673; assay: MIC, antibacterial and synergistic activity; conditions: K. pneumo JMI 2673 (CTX-M14 (ESBL)); substance alone
[20] = tested on: K.pneumo JMI 4109; assay: MIC, antibacterial and synergistic activity; conditions: K.pneumo JMI 4109 (SHV-1, SHV-12); substance alone
[21] = tested on: E. cloacae JMI 36; assay: MIC, antibacterial and synergistic activity; conditions: Enterobacter cloacae, JMI36
[22] = tested on: A. baumanii JMI 2659; assay: MIC, antibacterial and synergistic activity; conditions: Acinetobacter baumannii, JMI2659
[23] = tested on: P. aerug JMI 149; assay: MIC, antibacterial and synergistic activity
[24] = tested on: K. pneumo JMI 2681; assay: MIC, antibacterial and synergistic activity
[25] = tested on: P. aerug JMI 2686; assay: MIC, antibacterial and synergistic activity; conditions: P. aerug JMI 2686 (KPC-2 (Cpase)); substance alone; remark: listed apart in the source
Method: as §2

[26] = tested on: E. coli JMI 2671; assay: MIC, antibacterial and synergistic activity; conditions: Escherichia coli, JMI2671, E. coli JMI 2671 (VIM-19 (Cpase)); substance alone
Method: as §2

[27] = tested on: E. coli JMI 2665; assay: MIC, antibacterial and synergistic activity; conditions: Escherichia coli
Method: as §2

[28] = Serratia marcescens, Isolate No 35, Enzyme IMP-4, unit assumed
[29] = E. coli JMI 2692 (NDM-1, TEM-1, CTX-M-15), substance alone, read-out: MIC
[30] = Citrobacter freundii, Isolate No 49469, Enzyme NDM-1, unit assumed
[31] = Enterobacter aerogenes, Isolate No 8397, Enzyme VIM-1, unit assumed
[32] = Enterobacter aerogenes, Isolate No 47683, Enzyme VIM-12, unit assumed
[33] = Enterobacter cloacae, Isolate No 4, Enzyme VIM-6, unit assumed
[34] = Enterobacter cloacae, Isolate No 10, Enzyme IMP-26, unit assumed
[35] = Enterobacter cloacae, Isolate No 25, Enzyme IMP-4, unit assumed
[36] = Enterobacter cloacae, Isolate No 1068, Enzyme VIM-2, unit assumed
[37] = Enterobacter cloacae, Isolate No 1471, Enzyme VIM-1, unit assumed
[38] = Enterobacter cloacae, Isolate No 3686, Enzyme IMP-1, unit assumed
[39] = Enterobacter cloacae, Isolate No 53477, Enzyme NDM-1, unit assumed
[40] = Escherichia coli, Isolate No 17, Enzyme NDM-1, unit assumed
[41] = Escherichia coli, Isolate No 49, Enzyme NDM-1, unit assumed
[42] = Escherichia coli, Isolate No 53749, Enzyme NDM-1, unit assumed
[43] = Klebsiella oxytoca, Isolate No 24825, Enzyme IMP-26, unit assumed
[44] = Klebsiella oxytoca, Isolate No 31141, Enzyme VIM-23, unit assumed
[45] = Klebsiella pneumoniae, Isolate No 16, Enzyme VIM-5, unit assumed
[46] = Klebsiella pneumoniae, Isolate No 38, Enzyme NDM-1, unit assumed
[47] = Providencia stuartii, Isolate No 26582, Enzyme VIM-1, unit assumed
[48] = Serratia marcescens, Isolate No 36098, Enzyme IMP-19, unit assumed

## C[C@H]1[C@H](NC(=O)/C(=N\OC(C)(C)C(=O)O)c2csc(N)n2)C(=O)N1S(=O)(=O)O [Aztreonam, aztreonam, reference compound]
[1]
  MIC: > 512 µg/mL
[2]
  MIC: 0.25 µg/mL
[3]
  MIC: 64 µg/mL
[4]
  MIC: ≤ 1 µg/mL
[5]; Escherichia coli, Isolate No 13, Enzyme IMP-1
  MIC: 16
[5]; [28]
  MIC: ≤ 0.12 µg/mL
[6]
  MIC: 512 µg/mL
[6]; read-out: MIC
  MIC: > 512 µg/mL
[7]
  MIC: > 512 µg/mL
[8]
  MIC: > 512 µg/mL
[9]
  MIC: 64 µg/mL
[10]
  MIC: 128 µg/mL
[10]; read-out: MIC
  MIC: > 512 µg/mL
[11]
  MIC: 512 µg/mL
[12]
  MIC: 8 µg/mL
[13]
  MIC: 512 µg/mL
[14]
  MIC: > 512 µg/mL
[15]
  MIC: > 512 µg/mL
[16]; [29]
  MIC: > 512 µg/mL
[17]
  MIC: 32 µg/mL
[18]
  MIC: 32 µg/mL

## CC(C)(O/N=C(\C(=O)N[C@@H]1C(=O)N2C(C(=O)[O-])=C(C[n+]3ccccc3)CS[C@H]12)c1csc(N)n1)C(=O)O [Ceftazidime, ceftazidime, reference compound]
[1]
  MIC: > 512 µg/mL
[2]
  MIC: 0.25 µg/mL
[19]
  MIC: 32 µg/mL
[3]
  MIC: 64 µg/mL
[20]
  MIC: 8 µg/mL
[4]
  MIC: ≤ 1 µg/mL
[21]
  MIC: 128 µg/mL
[5]; [30]
  MIC: > 256 µg/mL
[5]; [31]
  MIC: > 256 µg/mL
[5]; [32]
  MIC: 256 µg/mL
[5]; [33]
  MIC: 256 µg/mL
[5]; [34]
  MIC: > 256 µg/mL
[5]; [35]
  MIC: > 256 µg/mL
[5]; [36]
  MIC: 128 µg/mL
[5]; Enterobacter cloacae, Isolate No 1280, Enzyme VIM-5, unit assumed
  MIC: 64 µg/mL
[5]; [37]
  MIC: > 256 µg/mL
[5]; Enterobacter cloacae, Isolate No 1874, Enzyme IMP-21, unit assumed
  MIC: 32 µg/mL
[5]; [38]
  MIC: > 256 µg/mL
[5]; [39]
  MIC: > 256 µg/mL
[5]; Escherichia coli, Isolate No 13, Enzyme IMP-1, unit assumed
  MIC: 256 µg/mL
[5]; [40]
  MIC: > 256 µg/mL
[5]; [41]
  MIC: > 256 µg/mL
[5]; [42]
  MIC: > 256 µg/mL
[5]; [43]
  MIC: > 256 µg/mL
[5]; [44]
  MIC: 128 µg/mL
[5]; [45]
  MIC: > 256 µg/mL
[5]; [46]
  MIC: > 256 µg/mL
[5]; [47]
  MIC: > 256 µg/mL
[5]; [28]
  MIC: 64 µg/mL
[5]; [48]
  MIC: 128 µg/mL
[22]
  MIC: 512 µg/mL
[23]
  MIC: 256 µg/mL
[6]; read-out: MIC
  MIC: > 512 µg/mL
[24]
  MIC: 512 µg/mL
[7]
  MIC: > 512 µg/mL
[9]
  MIC: 64 µg/mL
[10]; read-out: MIC
  MIC: > 512 µg/mL
[11]
  MIC: 512 µg/mL
[25]
  MIC: 512 µg/mL
[26]
  MIC: 64 µg/mL
[12]
  MIC: 8 µg/mL
[27]; JMI2665, E. coli JMI 2665 (CMY-2 (Plasmid Cpase)), substance alone, read-out: MIC
  MIC: 8 µg/mL
[14]
  MIC: > 512 µg/mL
[15]
  MIC: > 512 µg/mL
[16]; [29]
  MIC: > 512 µg/mL
[17]
  MIC: 32 µg/mL

## C[C@@H](O)[C@H]1C(=O)N2C(C(=O)O)=C(S[C@@H]3CN[C@H](C(=O)N(C)C)C3)[C@H](C)[C@H]12 [Meropenem, meropenem, reference compound]
[2]
  MIC: 0.06 µg/mL
[19]
  MIC: ≤ 1 µg/mL
[3]
  MIC: ≤ 1 µg/mL
[20]
  MIC: ≤ 1 µg/mL
[4]
  MIC: ≤ 1 µg/mL
[21]; E. cloacae JMI 36 (P99), substance alone, read-out: MIC
  MIC: ≤ 1 µg/mL
[5]; [30]
  MIC: 16 µg/mL
[5]; [31]
  MIC: 64 µg/mL
[5]; [32]
  MIC: 8 µg/mL
[5]; [33]
  MIC: 2 µg/mL
[5]; [34]
  MIC: 16 µg/mL
[5]; [35]
  MIC: 16 µg/mL
[5]; [36]
  MIC: 2 µg/mL
[5]; [37]
  MIC: 2 µg/mL
[5]; [38]
  MIC: 8 µg/mL
[5]; [39]
  MIC: 32 µg/mL
[5]; [40]
  MIC: 32 µg/mL
[5]; [41]
  MIC: 8 µg/mL
[5]; [42]
  MIC: 64 µg/mL
[5]; [43]
  MIC: 32 µg/mL
[5]; [44]
  MIC: 2 µg/mL
[5]; [45]
  MIC: 8 µg/mL
[5]; [46]
  MIC: 32 µg/mL
[5]; [47]
  MIC: 1 µg/mL
[5]; [28]
  MIC: 8 µg/mL
[5]; [48]
  MIC: 8 µg/mL
[22]; A. baumanii JMI 2659 (Ges-14 (Cpase)), substance alone, read-out: MIC
  MIC: 64 µg/mL
[23]; P. aerug JMI 149 (Bla+++D+), substance alone, read-out: MIC
  MIC: 4 µg/mL
[24]; K. pneumo JMI 2681 (Oxa-48 (Cpase)), substance alone, read-out: MIC
  MIC: 64 µg/mL
[7]
  MIC: 64 µg/mL
[9]
  MIC: ≤ 1 µg/mL
[10]; read-out: MIC
  MIC: 32 µg/mL
[25]
  MIC: 512 µg/mL
[26]
  MIC: 64 µg/mL
[12]
  MIC: ≤ 1 µg/mL
[13]
  MIC: 512 µg/mL
[27]; JMI2665
  MIC: ≤ 1 µg/mL
[14]
  MIC: 64 µg/mL
[15]
  MIC: 8 µg/mL
[16]
  MIC: 256 µg/mL
[17]
  MIC: ≤ 1 µg/mL
[18]
  MIC: ≤ 1 µg/mL
